Source: patent publication US20230074252A1, “DOSAGES AND METHODS FOR TREATING PULMONARY ARTERIAL HYPERTENSION WITH RODATRISTAT” (Altavant Sciences GmbH, priority 2020, published 2023)

Columns and labels:
Format in all cases: in vitro ADME
CYP1A2 = assay: CYP mRNA induction, cultured human hepatocytes from 3 donors; conditions: clinically relevant concentrations
Method: (§1) “mM^”=millimolar. CYP induction was evaluated using cultured human hepatocytes (from 3 donors) treated once daily for 3 days with RE/R concentrations to […].
(§2) CYP induction was evaluated in vitro using cultured human hepatocytes from 3 donors. Rodatristat ethyl and rodatristat caused negligible induction of CYP1A2 (<2% control for the most sensitive responder), CYP2B6 (mean±SD values relative to control of 16.2±20.0% and 15.0±17.9%, respectively), and CYP3A4 (7.1±6.41% and 10.3±11.9%, respectively) mRNA at 20 μM (the highest concentration studied). […] The highest values for induction of CYP2B6 by an individual donor at all concentrations tested were 60.1% and 57.4% at 10 μM for rodatristat ethyl and rodatristat, respectively, and for CYP3A4 were 13.3% and 23.0% at 20 μM, respectively.
(§3) The induction of specific CYP isoforms (CYP1A2, CYP2B6, CYP3A4) was investigated for RVT-1201 and KAR5417 in human hepatocytes (HH) (XT153040). […] CYP2B6 and CYP3A4 mRNA induction by RVT-1201 and KAR5417 (Emax and EC50) were used to estimate the PBPK model parameters Indmax and IndC50. Within the PBPK model, IndC50 is equal to EC50, the concentration of inducer that supports half maximal induction of the CYP isoform (estimated by a sigmoid three parameter fit to in vitro concentration-dependent mRNA induction data). Within the PBPK model, Indmax represents the maximum fold induction relative to incubation with vehicle only (vehicle=1). The reported Emax for RVT-1201 and KAR5417 was estimated by sigmoid three parameter fit to in vitro concentration-dependent mRNA induction data. Baseline activity was set equal to zero, rather than one, therefore reported Emax was increased by adding one to each value to estimate Indmax. CYP2B6 induction data was used in the PBPK model as reported. CYP3A4 induction data was scaled based on the maximum induction by rifampin (at 20 μM). Scaling of CYP3A4 induction using rifampin data from the same system leverages the extensive literature on rifampin induction in vitro and in vivo and allows adjustment of in vitro induction data based on the relative performance of rifampin in each in vitro incubation, and the empirical relationship between rifampin induction of CYP3A4 in vitro and in vivo.

CYP2B6 = assay: as above; conditions: for Highest induction of CYP2B6 by an individual donor: 10 μM; for Induction of CYP2B6 mRNA, mean±SD relative to control: 20 μM; for Inducer classification, CYP2B6: clinically relevant concentrations; for In vitro induction parameter Emax, CYP2B6 / EC50: mRNA, human hepatocytes; for EC50: read-out: In vitro induction parameter EC50, CYP2B6; for Calculated R3 Value, CYP2B6: predicted @ 600 mg BID
Method: as §1, §2, §3

CYP3A4 = assay: as above; conditions: for Highest induction of CYP3A4 by an individual donor / Induction of CYP3A4 mRNA, mean±SD relative to control: 20 μM; for Inducer classification, CYP3A4: clinically relevant concentrations; for In vitro induction parameter Emax, CYP3A4 / EC50: mRNA, human hepatocytes; for EC50: read-out: In vitro induction parameter EC50, CYP3A4; for Calculated R3 Value, CYP3A4: predicted @ 600 mg BID
Method: as §1, §2, §3

OATP1B1 = target: T1, OATP1B1 (Homo sapiens, UniProt Q9Y6L6); assay: Transporter inhibition, HEK293 cells, estradiol-17β-glucuronide probe; conditions: for Calculated Values, R-value, OATP1B1 / Potential for interaction? (transporter inhibitor), OATP1B1: predicted @ 600 mg BID; for IC50: read-out: In vitro IC50, OATP1B1
T1 construct: expressed in transfected cells; host or cells: HEK293
T1 sequence (Q9Y6L6 1-691): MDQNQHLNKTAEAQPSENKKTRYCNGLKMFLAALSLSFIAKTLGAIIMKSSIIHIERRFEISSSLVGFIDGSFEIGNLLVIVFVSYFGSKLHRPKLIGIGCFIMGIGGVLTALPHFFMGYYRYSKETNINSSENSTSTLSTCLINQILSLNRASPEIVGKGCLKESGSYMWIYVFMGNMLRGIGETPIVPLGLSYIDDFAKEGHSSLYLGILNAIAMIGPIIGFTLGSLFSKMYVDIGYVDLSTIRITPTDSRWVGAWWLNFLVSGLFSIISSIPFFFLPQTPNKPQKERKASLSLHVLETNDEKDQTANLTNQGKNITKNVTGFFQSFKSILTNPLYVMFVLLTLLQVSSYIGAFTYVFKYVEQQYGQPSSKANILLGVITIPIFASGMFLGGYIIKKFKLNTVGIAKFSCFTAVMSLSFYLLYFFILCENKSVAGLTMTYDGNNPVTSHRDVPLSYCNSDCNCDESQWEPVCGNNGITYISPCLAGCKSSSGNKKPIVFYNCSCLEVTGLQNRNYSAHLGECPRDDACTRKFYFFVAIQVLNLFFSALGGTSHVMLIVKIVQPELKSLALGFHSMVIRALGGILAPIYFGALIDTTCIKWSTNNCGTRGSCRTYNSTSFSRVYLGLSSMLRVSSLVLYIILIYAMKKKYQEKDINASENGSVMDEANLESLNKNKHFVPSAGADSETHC
Method: The competitive inhibition of specific transporters was investigated for RVT-1201 and KAR5417 in transporter-expressing in vitro systems (XT158039). Inhibition of P-gp was evaluated using a Caco-2 cell line with digoxin as probe substrate. Inhibition of OATP1B1 and OATP1B3 was evaluated using a HEK293 cell line expressing these transporters with estradiol-17β-glucuronide as probe substrate. In addition, inhibition of other transporters was also investigated (BCRP, OAT1, OAT3, OCT2, MATE1, MATE2-K). The IC50 estimates for P-gp (RVT-1201) and OATP1B1/3 (RVT-1201 and KAR5417) supported further evaluation of inhibition DDI potential using the PBPK model. For each IC50 estimate, substrate concentration and Km were used to estimate RVT-1201 and KAR5417 Ki with Equation 1 (Cheng and Prusoff, 1973).

SMILES | Inducer classification, CYP1A2 (CYP1A2) | Highest induction of CYP2B6 by an individual donor (CYP2B6) [%] | Induction of CYP2B6 mRNA, mean±SD relative to control (CYP2B6) [%] | Inducer classification, CYP2B6 (CYP2B6) | In vitro induction parameter Emax, CYP2B6 (CYP2B6) | EC50 (CYP2B6) [µM] | Calculated R3 Value, CYP2B6 (CYP2B6) | Highest induction of CYP3A4 by an individual donor (CYP3A4) [%] | Induction of CYP3A4 mRNA, mean±SD relative to control (CYP3A4) [%] | Inducer classification, CYP3A4 (CYP3A4) | In vitro induction parameter Emax, CYP3A4 (CYP3A4) | EC50 (CYP3A4) [µM] | Calculated R3 Value, CYP3A4 (CYP3A4) | Calculated R3 Value, CYP3A4 (CYP3A4; listed as rodatristat ethyl) | Calculated Values, R-value, OATP1B1 (OATP1B1) | Potential for interaction? (transporter inhibitor), OATP1B1 (OATP1B1) | IC50 (OATP1B1) [µM]
CCOC(=O)[C@@H]1CC2(CCN(c3cc(O[C@H](c4ccc(Cl)cc4-c4ccccc4)C(F)(F)F)nc(N)n3)CC2)CN1 [Rodatristat ethyl, (S)-ethyl 8-(2-amino-6-((R)-1-(5-chloro-[1,1′-biphenyl]-2-yl)-2,2,2-trifluoroethoxy)pyrimidin-4-yl)-2,8-diazaspiro[4.5]decane-3-carboxylate] | not considered inducers | 60.1 | 16.2±20.0 | potentially weak to moderate inducers | 3.1 | 6.16 | 0.960 | 13.3 | 7.1±6.41 | potential weak inducers | 4.53 | 15.6 | 0.925 | 0.478 | <1.1 | No | 25.4
Nc1nc(O[C@H](c2ccc(Cl)cc2-c2ccccc2)C(F)(F)F)cc(N2CCC3(CC2)CN[C@H](C(=O)O)C3)n1 [Rodatristat, (S)-8-(2-amino-6-((R)-1-(5-chloro-[1,1′-biphenyl]-2-yl)-2,2,2-trifluoroeth-oxy)pyrimidin-4-yl)-2,8-diazaspiro[4.5]decane-3-carboxylic acid] | not considered inducers | 57.4 | 15.0±17.9 | potentially weak to moderate inducers | 2.95 | 5.6 | 0.766 | 23.0 | 10.3±11.9 | potential weak inducers | 4.5 | 26.7 | 0.476 | – | <1.1 | No | 5.74
